Laboratory results published in US20240335444A1, “MODULATORS OF BCL6 PROTEOLYSIS AND ASSOCIATED METHODS OF USE” (Arvinas Operations, Inc., priority 2023, published 2024).

How the values were obtained:
[1] = molecular target: T1, BCL6 protein (Homo sapiens, UniProt P41182); assay: BCL6 protein degradation in DLBCL cell lines measured by ELISA; type: cell-based; design: Degradation of BCL6 protein in DLBCL cell lines were measured by ELISA; endogenous in cells; host or cells: OCI-Ly1, Farage, SU-DHL-4, SU-DHL-6, OCI-Ly7, SU-DHL-2, OCI-Ly10
[2] = tested on: LY2214; assay: PDX model of DLBCL, high-grade B-cell lymphoma (HGBCL, LY2214); type: in vivo, NOD/SCID or BALB/c Nude Mice; conditions: 30 mg/kg PO QD×21, compared to vehicle
Description: (§1) HuPrime® Lymphoma Xenograft Models in NOD/SCID or BALB/c Nude Mice, 4/group, were dosed orally (per os, PO) daily for 21 days (QD×21) and tumor measurements were acquired twice per week. […] Data points represent the mean per group and error bars the standard error of the mean.

[3] = molecular target: T1, BCL6 protein; assay: Tumor lysate BCL6 protein levels in SU-DHL-2 xenograft (western blotting); type: in vivo, mice; design: from tissue; host or cells: subcutaneous xenograft tumors of OCI-Ly1, OCI-Ly7, SU-DHL-2 or OCI-Ly10 cells in mice; conditions: 16-hours post-last dose
Description: (§2) Mice bearing subcutaneous tumors were orally (po) administered vehicle or Compound A at 3, 10, or 30 mg/kg bi-daily for 27 days (bid×27) or 30 mg/kg daily for 27 days (qd×27). Dosing began with tumors at an average of 180 mm^3. […] FIG. 9C depicts tumor lysate BCL6 protein levels 16-hours post-last dose analyzed by western blotting. Individual tumor BCL6 levels are shown in a scatter plot, mean is represented by the bar, determined by densitometry, normalized to GAPDH loading controls, and shown as a percentage of vehicle. Percent BCL6 degradation (%) relative to vehicle is shown above each arm. Statistical analyses were performed using 2-way ANOVA: p<0.0001 (****). Error bars represent standard error of the mean (±SEM).

[4] = Body weight of mice in the PDX models; type: in vivo, NOD/SCID or BALB/c Nude Mice; conditions: 30 mg/kg PO QD×21
Description: as §1

[5] = tested on: OCI-Ly10; assay: Tumor growth of DLBCL cell line derived xenograft model OCI-Ly10; type: in vivo, mice; conditions: po 3, 10 or 30 mg/kg bid×28 or 30 mg/kg qd×28, dosing dependent
Description: as §2, with “28” for “27”, “(bid×28)” for “(bid×27)”, “(qd×28).” for “(qd×27).”, “190” for “180”, “10C” for “9C”, “ANOVA: p<0.05 (*),” for “ANOVA:”

[6] = tested on: LY6934; assay: PDX model of DLBCL, ABC/GCB (LY6934); type: in vivo, NOD/SCID or BALB/c Nude Mice; conditions: 30 mg/kg PO QD×21, compared to vehicle
Description: as §1

[7] = tested on: SU-DHL-2; assay: Tumor growth of DLBCL cell line derived xenograft model SU-DHL-2; type: in vivo, mice; conditions: SU-DHL-2 xenograft, po 3, 10 or 30 mg/kg bid×27 or 30 mg/kg qd×27; dosing dependent
Description: as §2

[8] = tested on: LY12962; assay: PDX model of NHL NOS (LY12962); type: in vivo, NOD/SCID or BALB/c Nude Mice; conditions: 30 mg/kg PO QD×21
Description: as §1

[9] = tested on: OCI-Ly7; assay: Tumor growth of DLBCL cell line derived xenograft model OCI-Ly7; type: in vivo, mice; conditions: po 1, 3, 10 or 30 mg/kg daily for 13 days (qd×13), dosing dependent
Description: Mice bearing subcutaneous tumors were orally (po) administered vehicle or Compound A at 1, 3, 10, or 30 mg/kg daily for 13 days (qd×13). Dosing began with tumors at an average of 130 mm^3. […] FIG. 8C depicts tumor lysate BCL6 protein levels 16-hours post-last dose analyzed by western blotting. Individual tumor BCL6 levels are shown in a scatter plot, mean is represented by the bar, determined by densitometry, normalized to GAPDH loading controls, and shown as a percentage of vehicle. Percent BCL6 degradation (%) relative to vehicle is shown above each arm. Statistical analyses were performed using 2-way ANOVA: p<0.0001 (****). Error bars represent standard error of the mean (±SEM).

[10] = tested on: OCI-Ly1; assay: Tumor growth of DLBCL cell line derived xenograft model OCI-Ly1; type: in vivo, mice; conditions: OCI-Ly1 xenograft, dosing dependent
Description: Mice bearing subcutaneous tumors were orally (po) administered vehicle or Compound A at 1, 3, 10, or 30 mg/kg daily for 22 days (qd×22). Dosing began with tumors at an average of 140 mm^3. […] Statistical analyses were performed using 2-way ANOVA: p<0.0001 (****). Error bars represent standard error of the mean (±SEM).
Mice bearing subcutaneous tumors were orally (po) administered vehicle or Compound A at 1, 3, or 10 mg/kg bi-daily for 23 days (bid×23). Dosing began with tumors at an average of 170 mm^3. […] FIG. 7C depicts tumor lysate BCL6 protein levels 16-hours post-last dose analyzed by western blotting. Individual tumor BCL6 levels are shown in a scatter plot, mean is represented by the bar, determined by densitometry, normalized to GAPDH loading controls, and shown as a percentage of vehicle. Percent BCL6 degradation (%) relative to vehicle is shown above each arm. Statistical analyses were performed using 2-way ANOVA: p<0.0001 (****). Error bars represent standard error of the mean (±SEM).

[11] = tested on: LY3148; assay: PDX model of Burkitt's lymphoma (LY3148); type: in vivo, NOD/SCID or BALB/c Nude Mice; conditions: 30 mg/kg PO QD×21
Description: as §1

Compound: CNC(=O)COc1cc2cc(Nc3nc(N4CCC(O[C@H]5C[C@H](N6CCC(c7ccc8c(c7F)CN(C7CCC(=O)NC7=O)C8=O)CC6)C5)CC4)ncc3Cl)ccc2n(C(C)C)c1=O (some centres unmarked) [Compound A, 2-({6-[(5-chloro-2-{4-[(1r,3r)-3-{4-[2-(2,6-dioxopiperidin-3-yl)-4-fluoro-1-oxo-2,3-dihydro-1H-isoindol-5-yl]piperidin-1-yl}cyclobutoxy]piperidin-1-yl}pyrimidin-4-yl)amino]-2-oxo-1-(propan-2-yl)-1,2-dihydroquinolin-3-yl}oxy)-N-methylacetamide]
- BCL6 protein degradation ([1]; ABC DLBCL cell lines SU-DHL-2, OCI-Ly10, 24 hours (FIG. 2C)): potent BCL6 protein degradation
- BCL6 protein degradation ([1]; GCB DLBCL cell lines Farage, SU-DHL-4, SU-DHL-6, OCI-Ly7, 24 hours (FIG. 2B)): potent BCL6 protein degradation
- BCL6 protein degradation ([1]; OCI-Ly1 cell line, 24-hours treatment, compared to E3-binding deficient analogue (FIG. 2A)): potent BCL6 protein degradation
- Change in mean tumor volume [2]: tumor regression
- Tumor lysate BCL6 protein level [3]: dose-dependent degradation of BCL6 protein
- Body weight loss [4]: No significant body weight loss
- Tumor growth [5]: inhibits the tumor growth
- Change in mean tumor volume [6]: tumor regression
- Tumor growth [7]: inhibits the tumor growth
- Change in mean tumor volume [8]: tumor regressions
- Tumor growth [9]: inhibits the tumor growth
- Tumor growth ([10]; po 1, 3, 10 or 30 mg/kg daily for 22 days (qd×22)): inhibits the tumor growth
- Tumor growth ([10]; po 1, 3 or 10 mg/kg bi-daily for 23 days (bid×23)): inhibits the tumor growth
- Change in mean tumor volume [11]: tumor regressions
